Here are results for one substance from patent publication US8911723B2, “Hybrid hydrogel scaffold compositions and methods of use” (Escape Therapeutics, Inc., priority 2010, dated 2014).

The term viability denotes a per cent measure of how many cells are alive, often set against a control.

Data set [1] relates to hAMSCs. Kind of data set: hAMSC morphology and distribution (aggregation) after encapsulation in hydrogels. As to conditions: hAMSCs encapsulated in hydrogel. It is filed as cell-based, human. The protocol:
Cells were encapsulated in the appropriate hydrogel by gently mixing hAMSCs with PO, EFK8, or EFK8-PO at a final concentration of 1×10^6 cells/ml. When seeding hAMSCs in PO or EFK8-PO, hydrogels were kept on ice to prevent premature gelation. Fifty μL of the aliquot of hydrogel/cell mixture was quickly transferred into a 96-well microplate. Encapsulated hAMSCs were then incubated at 37° C. for 5 min to induce gel formation. One hundred μL of DMEM medium was then added into each well. Fresh medium was changed 3 times within the first 30 min in order to neutralize the acidic pH of the hydrogels, and then changed every other day during culture. After various treatments described below and at the appropriate time points, a 1000 μL pipette tip was cut at its distal end to facilitate our ability to gently draw up 50 μL of encapsulated hAMSCs from the top of the well. Cells were then gently placed onto a slide to allow for examination under light field microscopy. This process was repeated 3 times per well, allowing for assessment of a total of 3 different depth layers (top, middle, and bottom) of the encapsulated cell mixture. This method of encapsulation can generally be used for encapsulating most cell-types in the scaffolds described herein. […]

Data set [2] concerns hAMSCs. Kind of data set: WST-1 Cell Proliferation assay of encapsulated hAMSCs. It counts as cell-based, human. As to conditions: days 1-4 of culture. Background: Formazan colour is commonly taken as a measure of viable cells.
Data set [3] deals with hAMSCs. Kind of data set: Cell surface marker expression of encapsulated hAMSCs (RT-PCR). It is filed as cell-based, human. As to conditions: after 2 weeks of culture, data not shown. The text has this: hAMSCs were confirmed to meet the minimal criteria for defining multipotent MSCs according to previously described methods [Dominici et al., “Minimal criteria for defining multipotent mesenchymal stromal cells. The International Society for Cellular Therapy position statement,” Cytotherapy 2006; 8:315-7.]. First, hAMSCs were plastic-adherent when maintained in standard culture conditions using tissue culture flasks. […] Third, hAMSCs were able to differentiate to osteoblasts, adipocytes and chondroblasts under standard in vitro differentiating conditions.

Data set [4] relates to bleeding hand. Kind of data set: Hemostatic agent test on a bleeding hand. The following applies: in vivo. The protocol: In one embodiment, the scaffolds can be used as a hemostatic agent. […] When a bleeding hand was treated with EFK8-PO, bleeding stopped at one minute. When a bleeding hand was treated with PO alone, the hand was still bleeding at 10 minutes.
Data set [5] concerns hAMSCs in nude mice. Kind of data set: In vivo adipogenic differentiation of hydrogel-encapsulated hAMSCs injected subcutaneously. The following applies: subcutaneous dorsal neck, 30 days post-injection. As for the experimental part: All mouse experiments were conducted in accordance with the Guide for the Care and Use of Laboratory Animals and were approved by each Institution's respective Administrative Panel on Laboratory Animal Care. hAMSCs were encapsulated in PO, EFK8, and EFK8-PO hydrogels at a final concentration of 1×10^6 cells/ml and mixed gently in the hydrogels. PO and EFK8-PO were kept on ice to prevent premature gelation during the seeding process. Two hundred μL of each encapsulation was injected subcutaneously using 1 ml syringes into the dorsal neck area of female nude mice (8 weeks of age). Two hundred μL of PBS was used as a control. The nude mice were then allowed to recover, and then returned to their cages. After 30 days, mice were sacrificed using CO2 euthanasia and dorsal neck skin harvested immediately. […]
Specimens were frozen sectioned using either vertical or horizontal slices 5-10 μm thick, then post-fixed in 100% cold acetone at −20° C., blocked for 1 hr with goat serum and then incubated with the appropriate mouse anti-human nuclei monoclonal primary antibody (Chemicon, Billerica, Mass.) at the desired dilution (1:50 to 1:250) overnight at 4° C. Signal was detected using the Vectastain ABC Elite Mouse/Rabbit/Goat IgG detection kit (Vector Laboratories, Burlingame, Calif.) following the manufacturer's protocol. […]

Data set [6] has as its system hAMSCs. Kind of data set: In vitro osteogenic differentiation of encapsulated hAMSCs (ALP, alizarin red S). It is filed as cell-based, human. The following applies: osteogenic differentiation medium, 14 days. The text has this:
(§1) hAMSCs were encapsulated in PO, EFK8, and EFK8-PO as above. Adipogenic or osteogenic differentiation was induced by culturing cells in adipogenic or osteogenic differentiation medium (AD-medium or OS-medium, respectively, Cell Applications, San Diego, Calif.) for 7 days or 14 days, respectively, according to our previously published method, which is hereby incorporated by reference, Zhao L et al., “TGF-beta 1 Induces Osteogenic Differentiation of Murine Bone Marrow Stromal Cells,” Tissue Eng Part A 2009, In press. Fresh induction media was added to every other day.
Alkaline Phosphatase (ALP) staining was used to detect mineralization in hAMSCs during osteogenic differentiation. After culturing encapsulated hAMSCs for 14 days in the various hydrogels, the medium was aspirated and cells were stained with StemTag ALP (Cell Biolabs, San Diego, Calif.) according to the manufacturer's protocol. Briefly, after washing twice with PBS, cells were exposed to fixing solution for 2 min, then washed again with PBS and incubated with StemTAG ALP staining solution for 30 min in the dark. ALP staining solution was aspirated and cells were then washed with PBS and observed under light microscopy. […]

Data set [7] can be described thus: Rheology, temperature sweep of hydrogels (AR-G2 rheometer). It is filed as physicochemical. The following applies: for lost modulus G″ / storage modulus G′: 1% w/v in PBS. As for the experimental part: The viscoelastic properties of 3 hydrogels were investigated with a, AR-G2 rheometer (TA Instruments, New Castle, Del.). The parameters of temperature sweep were set as follows: range 4-40° C., change rate 5° C./min, strain 2%; frequency 1 Hz. Three parameters were recorded: 1) storage modulus G′ estimates the elastic component of mechanical strength, 2) lost modulus G″ estimates the viscous component of mechanical strength, and 3) phase difference Delta indicates the elastic or viscous property of a material. Zero degree of Delta implies a purely elastic material, while a purely viscous material has a Delta of 90 degrees. This same method can be used to analyze the viscoelastic properties of any of the scaffolds/hydrogels of the invention.
To determine the mechanical properties of PO, EFK8, and EFK8-PO hydrogels, we performed rheological analyses. The viscoelastic behaviors of EFK8 (1% w/v in PBS), PO (20% w/v in PBS), and EFK8-PO (20% w/v PO plus 1% w/v EFK8, both in PBS) hydrogels are illustrated in FIG. 1. At 25° C., G′ of EFK8 hydrogel was ˜10.5 Pa and G″ was ˜6.2 Pa. […] Phase difference Delta increased from 30 degrees to 70 degrees (FIG. 1A). […] EFK8 hydrogel was very weak and less viscous both at room temperature and 37° C. […] FIG. 1C illustrates the viscoelastic behavior of EFK8-PO.

A short description of data set [8]: Cell viability of hydrogel-encapsulated hAMSCs (trypan blue). As to conditions: human, hAMSCs encapsulated in EFK8 hydrogel, through 14 days of culture, read-out: hAMSC viability. It counts as cell-based. As for the experimental part: hAMSCs were encapsulated in PO, EFK8, or EFK8-PO and cultured in a 37° C. humidified 5% CO2 incubator for 3 hrs, 1, 3, 6, 10, or 14 days. Fifty μL of cells was then mixed with an equal volume of 1% trypan blue and observed under light microscopy. Trypsin-EDTA (0.25%) was used to separate cells when cell aggregation occurred. Viability was calculated as the percentage of living cells over total cells.

Data set [9] relates to hAMSCs. Kind of data set: In vitro adipogenic differentiation of encapsulated hAMSCs (Oil Red O). It is filed as cell-based, human.
Description: as §1
Red oil staining was used to confirm hAMSC adipogenic differentiation. Cells were washed with PBS and fixed with 10% formalin for 20 min. Cells were then washed twice with PBS, once with 60% isopropyl alcohol, stained with Oil Red O solution (Sigma-Aldrich) for 15 min, washed with PBS once more, and then observed by light field microscopy, Hata K et al., “A CCAAT/enhancer binding protein beta isoform, liver-enriched inhibitory protein, regulates commitment of osteoblasts and adipocytes,” Mol Cell Biol, 2005, 25(5):1971-1979, which is hereby incorporated by reference.

“Also recorded” adds a separate entry of the source.

Regarding “Ac-KFEFKFEF-NH2 [EFK8, AcN-KFEFKFEF-CONH2]”, the “Aggregation Day 3” value in data set [1] (3 days of culture) is <3-5%. Moreover, in [1] (10 days of culture), the “Aggregation Day 10” value is recorded as approximately 10%. In [2], the “hAMSC proliferation (WST-1)” value is on record as “significantly increased hAMSC proliferation rates; also recorded: promote cell proliferation”. Besides, the “cell surface marker expression pattern” value in data set [3] is “expressed CD73, CD90, and CD105 but were negative for CD14, CD19, CD34, CD45, and HLA class II”. In [4], the “effectiveness as a hemostatic agent (in words)” value is reported as “also effective as a hemostatic agent”. Further, the “new fat (adipose) tissue / hAMSC engraftment and adipogenic differentiation” value in data set [5] is reported as “did not observe new adipose tissue”. For the same substance, in data set [6], the “Osteogenic AP (% +) Day 14” value is 88±9%. For the same substance, in [6], the “Osteogenic Alizarin Red (% +) Day 14” value is 54±7%. Further, the “lost modulus G″” value is approximately 6.2 Pa in [7] (25° C.) and 5 Pa in [7] (37° C.). Besides, the “storage modulus G′” value is approximately 10.5 Pa in data set [7] (25° C.) and 2 Pa in [7] (37° C.). The “phase difference Delta” value in data set [7] (end of the increase (37° C.)) was found to be 70 degrees; in data set [7] (start of the increase (25° C.)), 30 degrees. In data set [8], the viability was more than 80%. In addition, the “Adipogenic Oil-Red-O (% +) Day 4” value in data set [9] (adipogenic differentiation medium, 4 days) was determined as 42±6%. In [9] (adipogenic differentiation medium, 7 days), the “Adipogenic Oil-Red-O (% +) Day 7” value was found to be 68±8%. For the same substance, in data set [9] (adipogenic or osteogenic induction medium), the “differentiation of encapsulated hAMSCs on induction medium (in words)” value is reported as “differentiated into adipocytes or osteoblasts”.
